Measured values as given in patent publication US12564190B2, “Biobased herbicide enhancer agent and method for using the same” (priority 2021, dated 2026).

Experiments:
Assay type in all cases: in vivo
Lemna minor = assay: Herbicide activity on Lemna minor in vitro, fresh weight reduction after one week; details: fresh weight reduction compared to untreated plants, 7-day exposure, all chemicals 10 mg/L
Experimental: The experiment was carried out in Lemna minor growing in vitro conditions. Lemna minor (duckweed) was bought in the local market. A stock culture was maintained on modified Hoagland medium in a controlled environment. The pH of the medium was adjusted to 6.0, and the plants were grown under static conditions in a plant growth chamber at 25±2° C., light/dark regime of 16 h/8 h.
For the experiments, fronds free from any visible chlorosis were taken from the stock cultures and exposed to the appropriate treatment. For each treatment, we used six repetitions with three fronds per repetition as the initial frond number. Individual fronds were transferred to a 12 well multiplate containing Hoagland medium (control), Hoagland medium containing polyferulates, herbicides or the combination as shown in Table 9. All chemicals were evaluated at the same concentration (10 mg/L). The multiplate was covered with a transparent cover to prevent evaporation. The herbicide activity was evaluated as fresh weight reduction compared to untreated plants after one week of incubation in the described conditions.

Echinochloa colona = assay: Herbicide activity on Echinochloa colona plants, visual evaluation 20 days after treatment; details: E. colona, 20 DAT, application rate 110 g a.i. ha^−1
From the text: Echinochloa colona is a cosmopolitan weed common in crops (mainly rice, maize and vegetables), gardens, roadsides, disturbed sites, waste areas and pastures. It also grows along waterways, on the margins of lakes and ponds, in swamps and wetlands, and in other damp habitats. It has the potential to invade natural areas and completely outcompete native vegetation. This weed pose a significant threat to rice productivity globally and are usually reported as noxious weeds in several economically important crops around the world. E. colona has vigorous growth traits and high seed production since each E. colona plant can produce up to 42,000 seeds. The experiment in Echinochloa colona plants was carried out in independent pots and in four replications. […] The products were applied by spraying. The herbicide activity was visually evaluated 20 days after treatment.

potato plants = assay: Desiccation of potato plants, field plots, visual evaluation 15 days after treatment; details: three herbicides tested
From the text: The desiccant was applied by spraying.

| Molecule | Herbicide activity (Lemna minor) | Herbicide activity (Echinochloa colona) | Effect in combination with the herbicides tested (synergism or antagonism according to Colby) (potato plants) |
| --- | --- | --- | --- |
| CCCC(=NOCC(C)Oc1ccc(Cl)cc1)C1=C(O)CC(C2CCCSC2)CC1=O (stereo not shown) [Profoxydim] | 45% | 34 |  |
| COc1cc(/C=C/C(=O)O)ccc1O [Ferulic acid, (2E)-3-(4-hydroxy-3methoxyphenyl) prop-2-enoic acid] |  |  | antagonist |
| COC(=O)Nc1cccc(OC(=O)Nc2cccc(C)c2)c1 [Phenmedipham] | 3% |  |  |
| CCOC1Oc2ccc(OS(C)(=O)=O)cc2C1(C)C (stereo not shown) [Ethofumesate] | 0% |  |  |
| Diferulic acid |  |  | antagonist |
| COC(=O)c1cccc(C)c1S(=O)(=O)NC(=O)Nc1nc(OCC(F)(F)F)nc(N(C)C)n1 [Triflusulfuron-methyl] | 34% |  |  |
